System: bacterial isolates
Assay: microbe, parasite or virus in culture
Assay type: cell-based
Settings: for MBI 26 + Teicoplanin: in combination with Teicoplanin

Sequence: KWKSFIKKLTSAAKKVVTTAKPLISS [MBI 26]
- Peptide MIC Alone (1. Amikacin, A. baumannii ABI001): 8 µg/mL
- Peptide MIC Alone (1. Amikacin, A. baumannii ABI003): 8 µg/mL
- Peptide MIC Alone (1. Amikacin, S. maltophilia SMA021): 32 µg/mL
- Peptide MIC Alone (1. Amikacin, S. maltophilia SMA037): >128 µg/mL
- Peptide MIC Alone (2. Ceftriaxone, A. baumannii ABI002): 8 µg/mL
- Peptide MIC Alone (2. Ceftriaxone, A. baumannii ABI005): 2 µg/mL
- Peptide MIC Alone (2. Ceftriaxone, B. cepacia BC003): >128 µg/mL
- Peptide MIC Alone (2. Ceftriaxone, E. cloacae ECL014): 8 µg/mL
- Peptide MIC Alone (2. Ceftriaxone, E. cloacae ECL015): 32 µg/mL
- Peptide MIC Alone (2. Ceftriaxone, K. pneumoniae KP003): 16 µg/mL
- Peptide MIC Alone (2. Ceftriaxone, P. aeruginosa PA008): 128 µg/mL
- Peptide MIC Alone (2. Ceftriaxone, P. aeruginosa PA024): 128 µg/mL
- Peptide MIC Alone (2. Ceftriaxone, S. aureus SA025 MRSA): 1 µg/mL
- Peptide MIC Alone (2. Ceftriaxone, S. epidermidis SE007): 32 µg/mL
- Peptide MIC Alone (2. Ceftriaxone, S. epidermidis SE012): 64 µg/mL
- Peptide MIC Alone (2. Ceftriaxone, S. maltophilia SMA019): 4 µg/mL
- Peptide MIC Alone (2. Ceftriaxone, S. maltophilia SMA020): 4 µg/mL
- Peptide MIC Alone (3. Ciprofloxacin, A. calcoaceticus 1): >64 µg/mL
- Peptide MIC Alone (3. Ciprofloxacin, A. calcoaceticus 6): >32 µg/mL
- Peptide MIC Alone (3. Ciprofloxacin, E. cloacae 13): >128 µg/mL
- Peptide MIC Alone (3. Ciprofloxacin, E. cloacae 15): >32 µg/mL
- Peptide MIC Alone (3. Ciprofloxacin, E. cloacae 16): >32 µg/mL
- Peptide MIC Alone (3. Ciprofloxacin, P. aeruginosa 23): >32 µg/mL
- Peptide MIC Alone (3. Ciprofloxacin, P. aeruginosa 24): >32 µg/mL
- Peptide MIC Alone (3. Ciprofloxacin, P. aeruginosa PA41): 128 µg/mL
- Peptide MIC Alone (3. Ciprofloxacin, P. aeruginosa PA77): 128 µg/mL
- Peptide MIC Alone (3. Ciprofloxacin, S. aureus SA11): 128 µg/mL
- Peptide MIC Alone (3. Ciprofloxacin, S. maltophilia 34): >32 µg/mL
- Peptide MIC Alone (3. Ciprofloxacin, S. maltophilia 35): >32 µg/mL
- Peptide MIC Alone (4. Gentamicin, A. baumannii ABI001): 8 µg/mL
- Peptide MIC Alone (4. Gentamicin, A. baumannii ABI002): 8 µg/mL
- Peptide MIC Alone (4. Gentamicin, P. aeruginosa PA041): 64 µg/mL
- Peptide MIC Alone (4. Gentamicin, S. maltophilia SMA016): >128 µg/mL
- Peptide MIC Alone (4. Gentamicin, S. maltophilia SMA017): 16 µg/mL
- Amikacin MIC + Peptide (A. baumannii ABI001): 8 µg/mL
- Gentamicin MIC + Peptide (A. baumannii ABI001): 16 µg/mL
- Peptide MIC + Amikacin (A. baumannii ABI001): 2 µg/mL
- Peptide MIC + Gentamicin (A. baumannii ABI001): 2 µg/mL
- Ceftriaxone MIC + Peptide (A. baumannii ABI002): 16 µg/mL
- Gentamicin MIC + Peptide (A. baumannii ABI002): 0.5 µg/mL
- Peptide MIC + Ceftriaxone (A. baumannii ABI002): 2 µg/mL
- Peptide MIC + Gentamicin (A. baumannii ABI002): 4 µg/mL
- Amikacin MIC + Peptide (A. baumannii ABI003): 2 µg/mL
- Peptide MIC + Amikacin (A. baumannii ABI003): 2 µg/mL
- Ceftriaxone MIC + Peptide (A. baumannii ABI005): 8 µg/mL
- Peptide MIC + Ceftriaxone (A. baumannii ABI005): 0.125 µg/mL
- Ciprofloxacin MIC + Peptide (A. calcoaceticus 1): 0.25 µg/mL
- Peptide MIC + Ciprofloxacin (A. calcoaceticus 1): 1 µg/mL
- Ciprofloxacin MIC + Peptide (A. calcoaceticus 6): 0.25 µg/mL
- Peptide MIC + Ciprofloxacin (A. calcoaceticus 6): 16 µg/mL
- Peptide MIC + Piperacillin (A. calcoaceticus 7): 8 µg/mL
- Piperacillin MIC + Peptide (A. calcoaceticus 7): 4 µg/mL
- Peptide MIC Alone (A. calcoaceticus 7, Piperacillin section): >32 µg/mL
- Peptide MIC + Piperacillin (A. calcoaceticus 8): 8 µg/mL
- Piperacillin MIC + Peptide (A. calcoaceticus 8): 4 µg/mL
- Peptide MIC Alone (A. calcoaceticus 8, Piperacillin section): >32 µg/mL
- Ceftriaxone MIC + Peptide (B. cepacia BC003): 8 µg/mL
- Peptide MIC + Ceftriaxone (B. cepacia BC003): 0.125 µg/mL
- Ciprofloxacin MIC + Peptide (E. cloacae 13): 0.25 µg/mL
- Peptide MIC + Ciprofloxacin (E. cloacae 13): 4 µg/mL
- Peptide MIC + Piperacillin (E. cloacae 13): 8 µg/mL
- Piperacillin MIC + Peptide (E. cloacae 13): 4 µg/mL
- Peptide MIC Alone (E. cloacae 13, Piperacillin section): >32 µg/mL
- Ciprofloxacin MIC + Peptide (E. cloacae 15): 0.25 µg/mL
- Peptide MIC + Ciprofloxacin (E. cloacae 15): 8 µg/mL
- Ciprofloxacin MIC + Peptide (E. cloacae 16): 0.25 µg/mL
- Peptide MIC + Ciprofloxacin (E. cloacae 16): 16 µg/mL
- Ceftriaxone MIC + Peptide (E. cloacae ECL014): 32 µg/mL
- Peptide MIC + Ceftriaxone (E. cloacae ECL014): 2 µg/mL
- Ceftriaxone MIC + Peptide (E. cloacae ECL015): 4 µg/mL
- Peptide MIC + Ceftriaxone (E. cloacae ECL015): 4 µg/mL
- Mupirocin MIC + Peptide (E. coli ECO5): 30 µg/mL
- Peptide MIC + Mupirocin (E. coli ECO5): 1 µg/mL
- Peptide MIC Alone (E. coli ECO5, Mupirocin section): 8 µg/mL
- Mupirocin MIC + Peptide (E. coli SBECO2): 30 µg/mL
- Peptide MIC + Mupirocin (E. coli SBECO2): 1 µg/mL
- Peptide MIC Alone (E. coli SBECO2, Mupirocin section): 8 µg/mL
- MBI 26 Alone (E. faecalis 97040 VanB): 64 µg/mL
- MBI 26 + Teicoplanin (E. faecalis 97040 VanB): 8 µg/mL
- MBI 26 Alone (E. faecalis 97041 VanB): 64 µg/mL
- MBI 26 + Teicoplanin (E. faecalis 97041 VanB): 8 µg/mL
- MBI 26 Alone (E. faecalis 97042 VanB): 64 µg/mL
- MBI 26 + Teicoplanin (E. faecalis 97042 VanB): 8 µg/mL
- MBI 26 Alone (E. faecalis 97043 VanB): 64 µg/mL
- MBI 26 + Teicoplanin (E. faecalis 97043 VanB): 8 µg/mL
- Peptide MIC + Vancomycin (E. faecalis EFS005): 16 µg/mL
- Peptide MIC Alone (E. faecalis EFS005): >128 µg/mL
- Vancomycin MIC + Peptide (E. faecalis EFS005): 4 µg/mL
- Peptide MIC + Vancomycin (E. faecalis EFS012): 1 µg/mL
- Peptide MIC Alone (E. faecalis EFS012): 16 µg/mL
- Vancomycin MIC + Peptide (E. faecalis EFS012): 2 µg/mL
- Peptide MIC + Vancomycin (E. faecalis EFS013): 1 µg/mL
- Peptide MIC Alone (E. faecalis EFS013): 16 µg/mL
- Vancomycin MIC + Peptide (E. faecalis EFS013): 2 µg/mL
- MBI 26 Alone (E. faecium 97001 VanB): 64 µg/mL
- MBI 26 + Teicoplanin (E. faecium 97001 VanB): 4 µg/mL
- MBI 26 Alone (E. faecium 97002 VanB): 64 µg/mL
- MBI 26 + Teicoplanin (E. faecium 97002 VanB): 1 µg/mL
- MBI 26 Alone (E. faecium 97003 VanB): 64 µg/mL
- MBI 26 + Teicoplanin (E. faecium 97003 VanB): 1 µg/mL
- MBI 26 Alone (E. faecium 97005 VanB): 64 µg/mL
- MBI 26 + Teicoplanin (E. faecium 97005 VanB): 2 µg/mL
- MBI 26 Alone (E. faecium 97006 VanB): 64 µg/mL
- MBI 26 + Teicoplanin (E. faecium 97006 VanB): 4 µg/mL
- MBI 26 Alone (E. faecium 97007 VanB): 64 µg/mL
- MBI 26 + Teicoplanin (E. faecium 97007 VanB): 1 µg/mL
- MBI 26 Alone (E. faecium 97008 VanB): 64 µg/mL
- MBI 26 + Teicoplanin (E. faecium 97008 VanB): 4 µg/mL
- MBI 26 Alone (E. faecium 97009 VanB): 32 µg/mL
- MBI 26 + Teicoplanin (E. faecium 97009 VanB): 1 µg/mL
- MBI 26 Alone (E. faecium 97010 VanB): 64 µg/mL
- MBI 26 + Teicoplanin (E. faecium 97010 VanB): 4 µg/mL
- MBI 26 Alone (E. faecium 97011 VanB): 64 µg/mL
- MBI 26 + Teicoplanin (E. faecium 97011 VanB): 4 µg/mL
- MBI 26 Alone (E. faecium 97012 VanB): 64 µg/mL
- MBI 26 + Teicoplanin (E. faecium 97012 VanB): 4 µg/mL
- MBI 26 Alone (E. faecium 97013 VanB): 64 µg/mL
- MBI 26 + Teicoplanin (E. faecium 97013 VanB): 8 µg/mL
- MBI 26 Alone (E. faecium 97014 VanB): 64 µg/mL
- MBI 26 + Teicoplanin (E. faecium 97014 VanB): 4 µg/mL
- MBI 26 Alone (E. faecium 97015 VanB): 64 µg/mL
- MBI 26 + Teicoplanin (E. faecium 97015 VanB): 4 µg/mL
- MBI 26 Alone (E. faecium 97016 VanB): 64 µg/mL
- MBI 26 + Teicoplanin (E. faecium 97016 VanB): 4 µg/mL
- Peptide MIC + Vancomycin (E. faecium EFM010): 8 µg/mL
- Peptide MIC Alone (E. faecium EFM010): 32 µg/mL
- Vancomycin MIC + Peptide (E. faecium EFM010): 2 µg/mL
- Peptide MIC + Vancomycin (E. faecium EFM011): 8 µg/mL
- Peptide MIC Alone (E. faecium EFM011): 32 µg/mL
- Vancomycin MIC + Peptide (E. faecium EFM011): 2 µg/mL
- Peptide MIC + Vancomycin (E. faecium EFM012): 16 µg/mL
- Peptide MIC Alone (E. faecium EFM012): 64 µg/mL
- Vancomycin MIC + Peptide (E. faecium EFM012): 2 µg/mL
- Peptide MIC + Vancomycin (E. faecium EFM014): 8 µg/mL
- Peptide MIC Alone (E. faecium EFM014): 32 µg/mL
- Vancomycin MIC + Peptide (E. faecium EFM014): 4 µg/mL
- Peptide MIC + Vancomycin (E. faecium EFM016): 4 µg/mL
- Peptide MIC Alone (E. faecium EFM016): 8 µg/mL
- Vancomycin MIC + Peptide (E. faecium EFM016): 1 µg/mL
- Peptide MIC + Piperacillin (H. influenzae 1): 8 µg/mL
- Piperacillin MIC + Peptide (H. influenzae 1): 32 µg/mL
- Peptide MIC Alone (H. influenzae 1, Piperacillin section): >128 µg/mL
- Peptide MIC + Piperacillin (H. influenzae 2): 2 µg/mL
- Piperacillin MIC + Peptide (H. influenzae 2): 64 µg/mL
- Peptide MIC Alone (H. influenzae 2, Piperacillin section): >128 µg/mL
- Ceftriaxone MIC + Peptide (K. pneumoniae KP003): 4 µg/mL
- Peptide MIC + Ceftriaxone (K. pneumoniae KP003): 1 µg/mL
- Peptide MIC + Piperacillin (P. aeruginosa 7): 32 µg/mL
- Piperacillin MIC + Peptide (P. aeruginosa 7): 32 µg/mL
- Peptide MIC Alone (P. aeruginosa 7, Piperacillin section): >128 µg/mL
- Ciprofloxacin MIC + Peptide (P. aeruginosa 23): 0.5 µg/mL
- Peptide MIC + Ciprofloxacin (P. aeruginosa 23): 2 µg/mL
- Peptide MIC + Piperacillin (P. aeruginosa 23): 32 µg/mL
- Piperacillin MIC + Peptide (P. aeruginosa 23): 4 µg/mL
- Peptide MIC Alone (P. aeruginosa 23, Piperacillin section): >64 µg/mL
- Ciprofloxacin MIC + Peptide (P. aeruginosa 24): 0.5 µg/mL
- Peptide MIC + Ciprofloxacin (P. aeruginosa 24): 2 µg/mL
- Peptide MIC + Piperacillin (P. aeruginosa 28): 32 µg/mL
- Piperacillin MIC + Peptide (P. aeruginosa 28): 16 µg/mL
- Peptide MIC Alone (P. aeruginosa 28, Piperacillin section): >128 µg/mL
- Peptide MIC + Piperacillin (P. aeruginosa 41): 4 µg/mL
- Piperacillin MIC + Peptide (P. aeruginosa 41): 32 µg/mL
- Peptide MIC Alone (P. aeruginosa 41, Piperacillin section): 128 µg/mL
- Mupirocin MIC + Peptide (P. aeruginosa PA2): 10 µg/mL
- Peptide MIC + Mupirocin (P. aeruginosa PA2): 64 µg/mL
- Peptide MIC Alone (P. aeruginosa PA2, Mupirocin section): 128 µg/mL
- Mupirocin MIC + Peptide (P. aeruginosa PA4): 100 µg/mL
- Peptide MIC + Mupirocin (P. aeruginosa PA4): 32 µg/mL

From patent US20020035061A1, “COMPOSITIONS AND METHODS FOR TREATING INFECTIONS USING CATIONIC PEPTIDES ALONE OR IN COMBINATION WITH ANTIBIOTICS” (priority 1996, published 2002)
